From paper PMC12030059, “Mechanistic Advances in the Therapeutic Application of Bixin for Lung Inflammation In Vitro and In Vivo” (Pharmaceuticals, 2025)

Columns and labels:
[1] = PAMPA-GIT permeability assay; type: in vitro ADME; conditions: for Experimental Fa: absorbed fraction; for Papp: read-out: Experimental Pe; for Classification (intestinal permeability): by absorbed fraction
Text: The parallel artificial membrane permeability assay (PAMPA) utilizes a 96-well plate system in a “sandwich” format, where one plate is positioned above another (PAMPA). The upper plate, known as the donor compartment, contains the compounds (test or control) dissolved in a buffered solution. […] The lipid composition of the PVDF filter varies depending on the type of permeability test. For gastrointestinal tract (GIT) permeability assessments, L-α-soy phosphatidylcholine in dodecane is used. Optical density values are measured at specified wavelengths for each compound and compared against controls. For GIT permeability, the absorbed fraction (Fa%) and permeability (Pe) are determined. […] Compounds for these assays were diluted from a 10 mM stock solution. These assays were conducted using a 1 mg/mL stock solution per compound.

[2] = ref C. Zhu et al. Eur. J. Med. Chem. 37 (2002) 399–407 [22], cited from earlier work
[3] = L-α-soy phosphatidylcholine in dodecane

In the case of `Nc1nc2c(ncn2COCCO)c(=O)[nH]1` [Acyclovir, acyclovir], the “Experimental Pe” value [1, 3] is reported as 0.36 10^−6 cm/s and the “Experimental Fa” value [1] is reported as 12.64%.
For `CO/N=C(\C(=O)N[C@@H]1C(=O)N2C(C(=O)O)=C(CSc3nc(=O)c(=O)[nH]n3C)CS[C@H]12)c1csc(N)n1` [Ceftriaxone, ceftriaxone], the Papp [1, 3] was 0.53 ×10⁻⁶ cm/s, the “Experimental Fa” value [1] was 18.19% and the “Classification (intestinal permeability)” value [1] was “Low (low (0–29%))”. The “Literature Fa” value ([2]; absorbed fraction) was 1% and the “Literature Pe” value ([2]; artificial membrane permeability) was 0.1 10^−6 cm/s.
For `O=c1ccc2ccccc2o1` [Coumarin, coumarin], the Papp [1, 3] was 25.2 ×10⁻⁶ cm/s, the “Experimental Fa” value [1] was 99.99% and the “Classification (intestinal permeability)” value [1] was “High (high (70–100%))”.
For `CCn1cc(C(=O)O)c(=O)c2cc(F)c(N3CCNCC3)cc21` [Norfloxacin, norfloxacin], the Papp [1, 3] was 1.56 ×10⁻⁶ cm/s and the “Classification (intestinal permeability)” value [1] was “Medium (medium (30–69%))”.
